# Counter-ions that a name gives are not always drawn.
# Assays:
# hecNOS = hecNOS (Homo sapiens, UniProt P29474); assay: Citrulline Assay for Nitric Oxide Synthase, Human in vitro Enzyme Data, hecNOS; format: biochemical
# hnaNOS = hnaNOS (Homo sapiens, UniProt P29475); assay: Citrulline Assay for Nitric Oxide Synthase, Human in vitro Enzyme Data, hnaNOS; format: biochemical
# [1] = test system: endotoxin (LPS) induced rise in plasma nitrites; assay: In Vivo Assay: plasma nitrites after endotoxin (Low Dose LPS); set-up: species or system Rats; settings: plasma nitrites 5 hours post-treatment
# Method: Rats were treated with an intraperitoneal injection of 10 mg/kg of endotoxin (LPS) with or without oral administration of the nitric oxide synthase inhibitors.
# hiNOS = hiNOS (Homo sapiens, UniProt P35228); assay: Citrulline Assay for Nitric Oxide Synthase, Human in vitro Enzyme Data, hiNOS; format: biochemical
smiles,measurement,setting,value
"Cc1noc(=O)n1CCCC[C@H](N)C(=O)O [Example 2, αS-amino-4,5-dihydro-3-methyl-5-oxo-1,2,4-oxadiazole-4-hexanoic acid, monohydrochloride]",IC50,hecNOS,1140 µM
same,IC50,hnaNOS,159 µM
same,"Low Dose LPS in vivo Effective Dose (i.v.), inh.","[1]; i.v., 3 mg/kg/day",83%
same,"Low Dose LPS in vivo Effective Dose (p.o.), inh.",[1]; 3 mg/kg/day,39%
same,"Low Dose LPS in vivo Effective Dose (p.o.), inh.",[1]; 10 mg/kg/day,42%
same,IC50,hiNOS,138 µM
